For this test, the system named is BDF1 mice, P388 leukemia ip, median survival T/C. Kind of test: NCI In Vivo Anticancer Drug Screen. Data for tumor model P388 Leukemia (intraperitoneal) in B6D2F1 (BDF1) mice. To be noted: endpoint: median survival time, higher = longer survival. The method, boiled down: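 Mice carrying the transplantable tumour receive compound or vehicle. Survival is followed in each arm, and the treated measure is divided by the vehicle measure.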

[1] abbreviates: dose: 50.0 mg/kg/injection, schedule: Q04DX003 (ip), vehicle: saline.
Setting [2] is: dose: 100.0 mg/kg/injection, schedule: Q04DX003 (ip), vehicle: saline.
Where [3] appears, read: dose: 100.0 mg/kg/injection, schedule: Q01DX009 (ip), vehicle: saline with Tween-80.
Where [4] appears, read: dose: 100.0 mg/kg/injection, schedule: Q04DX003 (ip), vehicle: saline with Tween-80.
Setting [5] is: dose: 50.0 mg/kg/injection, schedule: Q01DX009 (ip), vehicle: saline with Tween-80.
The mark [6] stands for this setting: dose: 200.0 mg/kg/injection, schedule: Q01DX009 (ip), vehicle: saline with Tween-80.
Where [7] appears, read: dose: 400.0 mg/kg/injection, schedule: Q01DX009 (ip), vehicle: saline with Tween-80.
Where [8] appears, read: dose: 200.0 mg/kg/injection, schedule: Q04DX003 (ip), vehicle: saline with Tween-80.
Where [9] appears, read: dose: 400.0 mg/kg/injection, schedule: Q04DX003 (ip), vehicle: saline with Tween-80.
[10] abbreviates: dose: 100.0 mg/kg/injection, schedule: Q01DX009 (ip), vehicle: Klucel (hydroxypropylcellulose) (HPC).
[11] abbreviates: dose: 200.0 mg/kg/injection, schedule: Q01DX009 (ip), vehicle: Klucel (hydroxypropylcellulose) (HPC).
[12] abbreviates: dose: 400.0 mg/kg/injection, schedule: Q01DX009 (ip), vehicle: Klucel (hydroxypropylcellulose) (HPC).

“And” between values parts separate entries of the source, which are not always exact repeats. Equal values may be shown once. Inconclusive results and toxic doses are left out. Residues, ends and D or L forms follow the SMILES beside them. *: point of attachment. Boc = CC(C)(C)OC(=O)*; OBn = c1ccc(CO*)cc1

For the compound `COc1ccc(C(=O)C(Br)C(Br)C(=O)O)cc1` (stereo not drawn), the T/C is 100 % of control (dose: 12.5 mg/kg/injection, schedule: Q01DX009 (ip), vehicle: saline); 95 % of control and 104 % of control (dose: 25.0 mg/kg/injection, schedule: Q01DX009 (ip), vehicle: saline); 100 % of control (dose: 25.0 mg/kg/injection, schedule: Q04DX003 (ip), vehicle: saline); 95 % of control and 112 % of control (dose: 50.0 mg/kg/injection, schedule: Q01DX009 (ip), vehicle: saline); 109 % of control under setting [1]; 105 % of control (dose: 100.0 mg/kg/injection, schedule: Q01DX009 (ip), vehicle: saline). In addition, the T/C under setting [2] was 86 % of control.
Regarding `O=C(O)c1nc2nc(Cl)c(Cl)nc2[nH]1`, the T/C by setting is: under setting [1], 111 % of control; under setting [2], 97 % of control; (dose: 200.0 mg/kg/injection, schedule: Q04DX003 (ip), vehicle: saline) 116 % of control.
On to `CC(=O)OC1C=CC(=O)OC1C1OC1C` (stereo not drawn), for which the T/C runs as follows: (dose: 3.0 mg/kg/injection, schedule: Q01DX010 (ip), vehicle: carboxymethylcellulose (CMC)) 90 % of control; (dose: 6.0 mg/kg/injection, schedule: Q01DX010 (ip), vehicle: carboxymethylcellulose (CMC)) 90 % of control; (dose: 12.0 mg/kg/injection, schedule: Q01DX010 (ip), vehicle: carboxymethylcellulose (CMC)) 100 % of control; (dose: 25.0 mg/kg/injection, schedule: Q01DX010 (ip), vehicle: carboxymethylcellulose (CMC)) 109 % of control.
In the case of `CC(C)(C)OC(=O)NCC(=O)NCC(=O)NCC(=O)OCc1ccccc1` (Boc-Gly-Gly-Gly-OBn), the T/C by setting is: (dose: 50.0 mg/kg/injection, schedule: Q01DX005 (ip), vehicle: saline with Tween-80) 95 % of control; (dose: 100.0 mg/kg/injection, schedule: Q01DX005 (ip), vehicle: saline with Tween-80) 98 % of control.
As for `COc1cccc(OC)c1C(c1c(OC)cccc1OC)c1c(OC)cccc1OC`, the T/C is 115 % of control (dose: 6.25 mg/kg/injection, schedule: Q01DX009 (ip), vehicle: saline with Tween-80); 100 % of control (dose: 12.5 mg/kg/injection, schedule: Q01DX009 (ip), vehicle: saline with Tween-80); 109 % of control (dose: 25.0 mg/kg/injection, schedule: Q01DX009 (ip), vehicle: saline with Tween-80); 104 % of control (dose: 25.0 mg/kg/injection, schedule: Q04DX003 (ip), vehicle: saline with Tween-80); 120 % of control under setting [3]; 116 % of control under setting [4].
Regarding `Clc1ccc2c(c1)nnn2OC1CCCCC1`, the T/C reads like this: under setting [5], 88 % of control; under setting [3], 92 % of control; under setting [6], 90 % of control.
On to `CN(C)CCC(=O)O`, for which the T/C runs as follows: under setting [3], 100 % of control; under setting [6], 95 % of control; under setting [7], 90 % of control.
In the case of `O=C(NCCNCc1ccccc1)c1ccccc1`, the T/C is, setting by setting: (dose: 12.5 mg/kg/injection, schedule: Q01DX009 (ip), vehicle: water) 96 % of control; (dose: 12.5 mg/kg/injection, schedule: Q04DX003 (ip), vehicle: water) 92 % of control; (dose: 16.0 mg/kg/injection, schedule: Q01DX009 (ip), vehicle: water) 100 % of control; (dose: 25.0 mg/kg/injection, schedule: Q01DX009 (ip), vehicle: water) 99 % of control and 122 % of control; (dose: 25.0 mg/kg/injection, schedule: Q04DX003 (ip), vehicle: water) 95 % of control and 99 % of control; (dose: 40.0 mg/kg/injection, schedule: Q01DX009 (ip), vehicle: water) 113 % of control. Further, the T/C reads like this: (dose: 50.0 mg/kg/injection, schedule: Q01DX009 (ip), vehicle: water) 103 % of control; (dose: 50.0 mg/kg/injection, schedule: Q04DX003 (ip), vehicle: water) 97 % of control; (dose: 100.0 mg/kg/injection, schedule: Q01DX009 (ip), vehicle: water) 90 % of control; (dose: 100.0 mg/kg/injection, schedule: Q04DX003 (ip), vehicle: water) 95 % of control and 99 % of control.
Consider `O=C1NC(=O)C(c2ccccc2)(c2ccc(Cl)cc2Cl)N1` (stereo not drawn), for which the T/C runs as follows: under setting [3], 95 % of control; under setting [4], 100 % of control; under setting [6], 91 % of control; under setting [8], 90 % of control; under setting [9], 100 % of control.
As for `CC/C(=C\c1cccc([N+](=O)[O-])c1)C(=O)O`, the T/C by setting is: under setting [10], 100 % of control; under setting [11], 100 % of control; under setting [12], 109 % of control.
In the case of `C=CCOc1ccccn1`, the T/C reads like this: (dose: 50.0 mg/kg/injection, schedule: Q04DX003 (ip), vehicle: saline with Tween-80) 90 % of control; under setting [4], 104 % of control; under setting [8], 113 % of control.
Regarding `COC(=O)[C@]1(C)CCC[C@]2(C)c3ccc(C(C)C)cc3CC[C@@H]12`, the T/C (dose: 0.5 mg/kg/injection, schedule: Q01DX009 (ip), vehicle: Klucel (hydroxypropylcellulose) (HPC)) is 100 % of control; the T/C (dose: 0.5 mg/kg/injection, schedule: Q04DX003 (ip), vehicle: Klucel (hydroxypropylcellulose) (HPC)) was 100 % of control; the T/C (dose: 1.0 mg/kg/injection, schedule: Q01DX009 (ip), vehicle: Klucel (hydroxypropylcellulose) (HPC)) is 103 % of control; the T/C (dose: 1.0 mg/kg/injection, schedule: Q04DX003 (ip), vehicle: Klucel (hydroxypropylcellulose) (HPC)) is 100 % of control; the T/C (dose: 2.0 mg/kg/injection, schedule: Q01DX009 (ip), vehicle: Klucel (hydroxypropylcellulose) (HPC)) is 92 % of control; the T/C (dose: 2.0 mg/kg/injection, schedule: Q04DX003 (ip), vehicle: Klucel (hydroxypropylcellulose) (HPC)) is 104 % of control.
Turning to `CCCC1=NNc2n[nH]c(=S)n2N1`, the T/C runs as follows: (dose: 12.5 mg/kg/injection, schedule: Q04DX003 (ip), vehicle: Klucel (hydroxypropylcellulose) (HPC)) 100 % of control; (dose: 25.0 mg/kg/injection, schedule: Q04DX003 (ip), vehicle: Klucel (hydroxypropylcellulose) (HPC)) 91 % of control; (dose: 50.0 mg/kg/injection, schedule: Q04DX003 (ip), vehicle: Klucel (hydroxypropylcellulose) (HPC)) 91 % of control.
For the compound `O=C(CC(c1ccccc1)N1CCN(c2ccccc2)CC1)c1ccccc1` (stereo not drawn), the T/C is 100 % of control (dose: 100.0 mg/kg/injection, schedule: Q04DX003 (ip), vehicle: Klucel (hydroxypropylcellulose) (HPC)); 100 % of control (dose: 200.0 mg/kg/injection, schedule: Q04DX003 (ip), vehicle: Klucel (hydroxypropylcellulose) (HPC)); 100 % of control (dose: 400.0 mg/kg/injection, schedule: Q04DX003 (ip), vehicle: Klucel (hydroxypropylcellulose) (HPC)).
With `NC(=S)c1cn(C2OC(CO)C(O)C2O)c2ncnc(N)c12` (stereo not drawn), the T/C (dose: 3.3 mg/kg/injection, schedule: Q01DX009 (ip), vehicle: saline with Tween-80) is 166 % of control and the T/C (dose: 5.0 mg/kg/injection, schedule: Q01DX009 (ip), vehicle: saline with Tween-80) was 100 % of control.
For `CN(C)c1ccc(/C=C/c2ccc3ccccc3[n+]2[O-])cc1`, the T/C by setting is: under setting [5], 99 % of control; under setting [3], 97 % of control; under setting [6], 117 % of control.
Consider `Cc1ccccc1NC(=O)C1CCC(C)(C(=O)O)C1(C)C` (stereo not drawn), for which the T/C is 90 % of control under setting [4], 100 % of control under setting [8] and 90 % of control under setting [9].
`CCCNC(=O)NO`: the T/C is 119 % of control under setting [10]; 87 % of control (dose: 100.0 mg/kg/injection, schedule: Q04DX003 (ip), vehicle: other); 104 % of control under setting [11]; 104 % of control (dose: 200.0 mg/kg/injection, schedule: Q04DX003 (ip), vehicle: other); 114 % of control under setting [12]; 104 % of control (dose: 400.0 mg/kg/injection, schedule: Q04DX003 (ip), vehicle: other).
On to `O=C/C=C/Nc1ccccc1`, for which the T/C is, setting by setting: under setting [3], 122 % of control; under setting [6], 109 % of control; under setting [7], 90 % of control.

(Values after PubChem BioAssay AID328 (DTP/NCI, 2004).)
